{
  "source": "patent US12492178B2",
  "about": "“Stable polymorph of R-MDMA HCl” (EMPATHBIO, INC., priority 2021, dated 2025)",
  "key": {"[1]": {"settings": "background statement; cited from earlier work"}, "[2]": {"test": "Dynamic Vapor Sorption (DVS)", "format": "physicochemical", "settings": "for Post-DVS crystalline form: XRPD of post-DVS solids", "experimental": "Dynamic vapor sorption data were collected on a Surface Measurement System DVS Intrinsic instrument.\nSamples were not dried prior to analysis. Sorption and desorption data were collected over a range from 5% to 95% RH at 10% RH increments under a nitrogen purge. The equilibrium criterion used for analysis was less than 0.0100% weight change in 5 minutes with a maximum equilibration time of 3 hours. Data were not corrected for the initial moisture content of the samples."}, "[3]": {"test": "Relative humidity stressing (state by XRPD)", "settings": "for Observations after RH stressing / State after RH stressing: 6 d"}, "[4]": {"test": "Particle size distribution (PSD)", "format": "physicochemical"}, "[5]": {"test": "Approximate solubility in various solvents at ambient temperature (aliquot addition, visual observation)", "format": "physicochemical", "settings": "for solubility: ambient temperature", "experimental": "Aliquots of various solvents were added to measured amounts of a Form I with agitation (typically sonication) at ambient temperature until complete dissolution was achieved, as judged by visual observation. If dissolution occurred after the addition of the first aliquot, values are reported as “>”."}, "[6]": {"test": "Stable form screen from slurries in organic solvent (state by XRPD)", "format": "physicochemical"}, "[7]": {"test": "Heating by DSC from RT to 200° C. and cooling to RT, XRPD of treated sample", "format": "physicochemical", "settings": "cooled down to RT", "experimental": "An (R)-MDMA HCl Form 1 sample was heated by DSC from RT to 200° C. and cooled down to RT."}, "[8]": {"test": "Stable form screen from slurries in aqueous/organic mixtures at room temperature for 7 days (state by XRPD)", "format": "physicochemical", "settings": "RT"}, "[9]": {"test": "Stable form and polymorph screen, twenty-nine experiments (XRPD)", "format": "physicochemical", "settings": "all samples of Example 3, XRPD"}, "[10]": {"test": "pH of aqueous solution using pH test strips", "format": "physicochemical", "settings": "10 mg/mL aqueous solution"}, "[11]": {"test": "Dry milling, effect on crystallinity (XRPD)", "format": "physicochemical", "settings": "30 Hz for 3×10 minutes", "experimental": "A dry milling experiment was conducted to investigate the effect on crystallinity."}},
  "note": "Like-named read-outs stand apart in the source and are kept apart here.",
  "data": [
    {"smiles": "CNC(C)Cc1ccc2c(c1)OCO2.Cl", "note": "(racemic) [hydrochloride salt of racemic MDMA]", "values": [
      {"measurement": "Solubility in water (in words)", "setting": "[1]", "result": "soluble in water"}
    ]},
    {"smiles": "CNC(C)Cc1ccc2c(c1)OCO2", "note": "(stereo not drawn) [MDMA, 3,4-Methylenedioxymethamphetamine]", "values": [
      {"measurement": "Solubility in water (in words)", "setting": "[1]", "result": "insoluble in water"}
    ]},
    {"smiles": "CN[C@H](C)Cc1ccc2c(c1)OCO2.Cl", "note": "[R-MDMA HCl Form I, (R)-3,4-methylenedioxymethamphetamine HCl]", "values": [
      {"measurement": "Water sorbed, equivalent moles", "setting": "[2]; 5-85% RH", "result": 0.04, "unit": "moles water"},
      {"measurement": "DVS wt. gain", "setting": "[2]; 5-85% RH, sorption, HCl", "result": 0.28, "unit": "% wt. gain 5-85% RH"},
      {"measurement": "DVS wt. gain", "setting": "[2]; 5-85% RH, sorption, listed as (R)-MDMA HCl Form I, HCl", "result": 0.28, "unit": "%"},
      {"measurement": "DVS weight gain", "setting": "[2]; 5-95% RH, sorption, listed as (R)-3,4-methylenedioxymethamphetamine HCl Form I, HCl", "result": "5.28±0.02", "unit": "%"},
      {"measurement": "DVS wt. loss", "setting": "[2]; 85-5% RH, desorption", "result": 0.51, "unit": "% wt. loss 85-5% RH"},
      {"measurement": "Water sorbed, equivalent moles", "setting": "[2]; 85-95% RH, per mole of salt", "result": 0.7, "unit": "mol water"},
      {"measurement": "DVS wt. gain", "setting": "[2]; 85-95% RH, sorption", "result": 5.00, "unit": "%"},
      {"measurement": "DVS weight loss", "setting": "[2]; 95-5% RH, desorption, listed as (R)-3,4-methylenedioxymethamphetamine HCl Form I, HCl", "result": "5.35±0.02", "unit": "%"},
      {"measurement": "DVS wt. loss", "setting": "[2]; 95-85% RH, desorption", "result": 4.84, "unit": "% wt. loss 95-85% RH"},
      {"measurement": "Post-DVS crystalline form", "setting": "[2]; HCl", "result": "Post-DVS crystalline form was found to be Form I"},
      {"measurement": "Post-DVS crystalline form", "setting": "[2]; listed as (R)-MDMA HCl Form I, HCl", "result": "consistent with Form I"},
      {"measurement": "Hygroscopicity (in words)", "setting": "[2]; between 5% and 85% RH", "result": "low hygroscopicity"},
      {"measurement": "Hygroscopicity (in words)", "setting": "[2]; between 85% and 95% RH", "result": "Significant hygroscopicity"},
      {"measurement": "Hysteresis on desorption", "setting": "[2]; desorption 95-5% RH", "result": "virtually no hysteresis"},
      {"measurement": "Observations after RH stressing", "setting": "[3]; 75% RH", "result": "free-flowing solids, B/E"},
      {"measurement": "State after RH stressing", "setting": "[3]; 75% RH", "result": "Form I"},
      {"measurement": "Observations after RH stressing", "setting": "[3]; 90% RH", "result": "mostly free-flowing solids, some clumps,"},
      {"measurement": "State after RH stressing", "setting": "[3]; 90% RH", "result": "Form I"},
      {"measurement": "Physical stability upon stressing", "setting": "[3]; 97% RH for 6 days", "result": "exhibits physical stability"},
      {"measurement": "Observations after RH stressing", "setting": "[3]; 97% RH", "result": "off-white fines, B/E, some deliquesence"},
      {"measurement": "State after RH stressing", "setting": "[3]; 97% RH", "result": "Form I, PO"},
      {"measurement": "PSD d10", "setting": "[4]", "result": 5.10, "unit": "μm"},
      {"measurement": "PSD d50", "setting": "[4]", "result": 19.2, "unit": "μm"},
      {"measurement": "PSD d90", "setting": "[4]", "result": 48.8, "unit": "μm"},
      {"measurement": "Approximate solubility at RT (in words)", "setting": "[5]; ACN, DCM, and most alcohols, listed as R-MDMA HCl Form 1, HCl", "result": "good solubility in ACN, DCM, and most alcohols"},
      {"measurement": "solubility", "setting": "[5]; Water, listed as R-MDMA HCl Form 1, HCl", "result": ">110000", "unit": "µg/mL"},
      {"measurement": "Approximate solubility at RT (in words)", "setting": "[5]; aqueous environments, HCl", "result": "The compound exhibited high solubility in aqueous environments,"},
      {"measurement": "Approximate solubility at RT (in words)", "setting": "[5]; aqueous environments, listed as R-MDMA HCl Form 1, HCl", "result": "high solubility in aqueous environments"},
      {"measurement": "Approximate solubility at RT (in words)", "setting": "[5]; most organic solvents tested, HCl", "result": "Lower solubility was observed in most organic solvents tested."},
      {"measurement": "Approximate solubility at RT (in words)", "setting": "[5]; most organic solvents tested, listed as R-MDMA HCl Form 1, HCl", "result": "Lower solubility was observed in most organic solvents tested"},
      {"measurement": "solubility", "setting": "[5]; organic solvent or mixture, thermodynamic from solid, 1-BuOH, read-out: Solubility", "result": 3000, "unit": "µg/mL"},
      {"measurement": "solubility", "setting": "[5]; organic solvent or mixture, thermodynamic from solid, 90:10 Acetone/Water, read-out: Solubility", "result": "> 76000", "unit": "µg/mL"},
      {"measurement": "solubility", "setting": "[5]; organic solvent or mixture, thermodynamic from solid, Acetone, read-out: Solubility", "result": "< 1000", "unit": "µg/mL"},
      {"measurement": "solubility", "setting": "[5]; organic solvent or mixture, thermodynamic from solid, CAN, read-out: Solubility", "result": 7000, "unit": "µg/mL"},
      {"measurement": "solubility", "setting": "[5]; organic solvent or mixture, thermodynamic from solid, DCM, read-out: Solubility", "result": 16000, "unit": "µg/mL"},
      {"measurement": "solubility", "setting": "[5]; organic solvent or mixture, thermodynamic from solid, EtOAc, read-out: Solubility", "result": "< 1000", "unit": "µg/mL"},
      {"measurement": "solubility", "setting": "[5]; organic solvent or mixture, thermodynamic from solid, EtOH, read-out: Solubility", "result": 25000, "unit": "µg/mL"},
      {"measurement": "solubility", "setting": "[5]; organic solvent or mixture, thermodynamic from solid, Heptane, read-out: Solubility", "result": "< 1000", "unit": "µg/mL"},
      {"measurement": "solubility", "setting": "[5]; organic solvent or mixture, thermodynamic from solid, IPA, read-out: Solubility", "result": 6000, "unit": "µg/mL"},
      {"measurement": "solubility", "setting": "[5]; organic solvent or mixture, thermodynamic from solid, MTBE, read-out: Solubility", "result": "< 1000", "unit": "µg/mL"},
      {"measurement": "solubility", "setting": "[5]; organic solvent or mixture, thermodynamic from solid, MeOH, read-out: Solubility", "result": "> 114000", "unit": "µg/mL"},
      {"measurement": "solubility", "setting": "[5]; organic solvent or mixture, thermodynamic from solid, MeOH/MTBE (5:95), read-out: Solubility", "result": "< 1000", "unit": "µg/mL"},
      {"measurement": "solubility", "setting": "[5]; organic solvent or mixture, thermodynamic from solid, MeOH/MTBE (10:90), read-out: Solubility", "result": "< 2000", "unit": "µg/mL"},
      {"measurement": "solubility", "setting": "[5]; organic solvent or mixture, thermodynamic from solid, MeOH/MTBE (20:80), read-out: Solubility", "result": 3000, "unit": "µg/mL"},
      {"measurement": "solubility", "setting": "[5]; organic solvent or mixture, thermodynamic from solid, THF, read-out: Solubility", "result": "< 1000", "unit": "µg/mL"},
      {"measurement": "solubility", "setting": "[5]; organic solvent or mixture, thermodynamic from solid, p-dioxane, read-out: Solubility", "result": "< 1000", "unit": "µg/mL"},
      {"measurement": "solubility", "setting": "[5]; organic solvent or mixture, thermodynamic from solid, t-BuOH, read-out: Solubility", "result": 1000, "unit": "µg/mL"},
      {"measurement": "solubility", "setting": "[5]; thermodynamic from solid, Water, read-out: Solubility", "result": "> 110000", "unit": "µg/mL"},
      {"measurement": "State after slurry", "setting": "[6]; 1-BuOH, RT, 14 d", "result": "Form I"},
      {"measurement": "State after slurry", "setting": "[6]; 90:10 EtOAc/MeOH, RT, 14 d", "result": "Form I"},
      {"measurement": "State after slurry", "setting": "[6]; ACN, RT, 14 d", "result": "Form I"},
      {"measurement": "State after slurry", "setting": "[6]; DCM, RT, 14 d", "result": "Form I"},
      {"measurement": "State after slurry", "setting": "[6]; EtOH, RT, 14 d", "result": "Form I"},
      {"measurement": "State after slurry", "setting": "[6]; IPA, RT, 14 d", "result": "Form I"},
      {"measurement": "State after slurry", "setting": "[6]; IPA, ~5° C., 14 d", "result": "Form I"},
      {"measurement": "State after slurry", "setting": "[6]; MeOH/MTBE (10:90), RT, 5 d", "result": "Form I"},
      {"measurement": "State after slurry", "setting": "[6]; t-BuOH, ~75° C., 7 d", "result": "Form I"},
      {"measurement": "Crystalline state after heating", "setting": "[7]", "result": "Form I crystalline state"},
      {"measurement": "State after slurry", "setting": "[8]; THF/water 98:2 (aw 0.38)", "result": "Form I"},
      {"measurement": "State after slurry", "setting": "[8]; acetone/water 98:2 (aw 0.35)", "result": "Form I"},
      {"measurement": "State after slurry", "setting": "[8]; p-dioxane/water 95:5 (aw 0.40)", "result": "Form I"},
      {"measurement": "Form found in stable form and polymorph screen", "setting": "[9]", "result": "Form I was formed in each case"},
      {"measurement": "pH of aqueous solution", "setting": "[10]", "result": "pH of a 10 mg/mL aqueous solution is approximately 6 using pH test"},
      {"measurement": "State after dry milling", "setting": "[11]", "result": "Form I with no apparent decrease in crystallinity"}
    ]}
  ]
}
